Experimental data: US5387709A, “Substituted sulfonamides, process of preparation and medicines containing same” (Lipha Lyonnaise Industrielle Pharmaceutique, priority 1990, dated 1995)
Read-outs that look alike come from different tables or passages of the source.

How the values were obtained:
platelets of guinea-pig = test: Inhibition of the platelet aggregation induced by U46619 (BORN test), guinea-pig platelets; type: cell-based; conditions: read-out: PLATELET AGGREGATION GUINEA-PIG IC 50
From the text: (A) Inhibition of the platelet aggregation induced by U46619, a stable analogue of TXA2 (9,11-dideoxy-11α,9α-epoxymethanoprostaglandine F2 α):
The tests determine a concentration of compound which inhibits at 50% (CI50) a liminar aggregation induced by U46619. The activities of the compounds of the present invention are given in example 108.
(§1) The products of examples 1 to 107 have been tested for platelet aggregation on guinea-pig and on the contraction of the aorta in rat as described previously.

rat aorta = test: Inhibition of the U46619 induced rat aorta vasoconstriction; type: cell-based; conditions: Rattus norvegicus, contraction by U46619 (142 nM), rat thoracic aorta, 37° C.; read-out: VASOCONSTRICTION RAT AORTA IC 50
Method: (B) Inhibition of the U46619 induced rat aorta vasoconstriction:
male rats weighing about 300 g are put to death by euthanasia; the thoracic aorta is rapidly taken out. A sample of about 1 cm is cut into a spiral, and placed in a vat containing 20 ml of nutrient medium (Krebs-Henseleit) kept a 37° C. and oxygenated (O2 95%, CO2 5%). The contractions are recorded with an isotonic strain gauge. After a rest of 45 mn, supramaximum contractions are provoked by the addition of an analogue of TXA2 (U46619: 142 nM) to the survival medium. A plateau is generally reached after 10 mn of contact, the latter not exceeding 25 mn. A rest of 30 mn and a plurality of rinses take place after each contraction. The products are added 10 mn after U46619 and allowed to rest 15 mn, after which delay the inhibition is measured. The inhibitory concentration 50 (IC) is determined for each compound studied and on a minimum of 3 aortas. The activities of the compounds of the present invention are described in example 108.
as §1

| Compound | IC50 (platelets of guinea-pig; Cavia porcellus, Platelet) [nM] | IC50 (rat aorta) [nM] | IC50 (platelets of guinea-pig) [nM] |
| --- | --- | --- | --- |
| Cc1ccc(S(=O)(=O)NCC2(Cc3ccc(CC(=O)O)cc3)CCCC2)cc1 [Example 24, 4-[[1-[[[(4-methylphenyl)sulfonyl]amino]methyl]cyclopentyl]methyl]benzeneacetic acid] | 570 | 300 | – |
| O=C(O)Cc1ccc(CC2(CNS(=O)(=O)c3ccc(F)cc3)CCCC2)cc1 [Example 16, 4-[[1-[[[(4-Fluorophenyl)sulfonyl]amino]methyl]cyclopentyl]methyl]benzeneacetic acid] | 2400 | 200 | – |
| O=C(O)Cc1ccc(C[C@@H]2CCC[C@@H]2NS(=O)(=O)c2ccc(Cl)cc2)cc1 (relative stereo) [Example 3, Cis-4-[[2-[[(4-chlorophenyl)sulfonyl]amino]cyclopentyl]methyl]benzeneaceticacid] | 600 | 60 | – |
| O=C(O)Cc1ccc(C2(CNS(=O)(=O)c3ccc(Cl)cc3)CC2)cc1 [Example 12, 4-[1-[[[(4-Chlorophenyl)sulfonyl]amino]methyl]cyclopropyl]benzeneacetic acid] | 1800 | 70 | – |
| CC(C)c1ccc(S(=O)(=O)NCC2(Cc3ccc(CC(=O)O)cc3)CCCC2)cc1 [Example 60, 4-[[1-[[[[4-(1-Methylethyl)phenyl]sulfonyl]amino]methyl]cyclopentyl]methyl]benzeneacetic acid] | > 5000 | > 1000 | – |
| O=C(O)Cc1ccc(CC2(CNS(=O)(=O)c3cccs3)CCCC2)cc1 [Example 67, 4-[[1-[[[(Thien-2-yl)sulfonyl]amino]methyl]cyclopentyl]methyl]benzeneaceticacid] | 1500 | 280 | – |
| COc1ccc(S(=O)(=O)NCC2(Cc3ccc(CC(=O)O)cc3)CCCC2)cc1 [Example 65, 4-[[1-[[[(4-Methoxyphenyl)sulfonyl]amino]methyl]cyclopentyl]methyl]benzeneacetic acid] | 350 | 270 | – |
| O=S(=O)(NCC1(Cc2ccc(CCO)cc2)CCCC1)c1ccc(Cl)cc1 [Example 28, 4-Chloro-N-[[1-[[4-(2-hydroxyethyl)phenyl]methyl]cyclopentyl]methyl]benzenesulfonamide] | 2600 | > 1000 | – |
| O=C(O)Cc1ccc(C[C@@H]2CCC[C@H]2NS(=O)(=O)c2ccc(Cl)cc2)cc1 (relative stereo) [Example 2, Sodium trans-4-[[2-[[(4-chlorophenyl)sulfonyl]amino]-cyclopentyl]methyl]benzene-acetate] | – | 70 | 720 |
| CC1(C)C(C)(C)C1(CNS(=O)(=O)c1ccc(Cl)cc1)Cc1ccc(CC(=O)O)cc1 [Example 90, 4-[[1-[[[(4-Chlorophenyl)sulfonyl]amino]methyl]-2,2,3,3-tetramethylcyclopropyl]methyl]benzeneacetic acid] | > 5000 | > 1000 | – |
| O=C(O)Cc1ccc(CC2(CNS(=O)(=O)c3ccc(I)cc3)CCCC2)cc1 [Example 54, 4-[[1-[[[(4-Iodophenyl)sulfonyl]amino]methyl]cyclopentyl]methyl]benzeneacetic acid] | 1100 | 40 | – |
| O=C(O)Cc1ccc(CC2(CNS(=O)(=O)c3ccccc3F)CCCC2)cc1 [Example 98, 4-[[1-[[[(2-Fluorophenyl)sulfonyl]amino]methyl]cyclopentyl]methyl]benzeneacetic acid] | 250 | 320 | – |
| O=S(=O)(NCC1(Cc2ccc(Cc3nnn[nH]3)cc2)CCCC1)c1ccc(Cl)cc1 [Example 81, 4-Chloro-N-[1-[[[4-[(1H-tetrazol-5-yl)methyl]phenyl]methyl]cyclopentyl]methyl]benzenesulfonamide] | 1600 | 60 | – |
| O=C(O)Cc1ccc(OC2CCCC2NS(=O)(=O)c2ccc(Cl)cc2)cc1 (stereo not shown) [Example 9, 4-[2-[[(4-chlorophenyl)sulfonyl]amino]cyclopentyloxy]benzeneacetic acid] | > 20000 | 1000 | – |
| O=C(O)Cc1ccc(CC2(CNS(=O)(=O)c3cccc(Cl)c3)CCCC2)cc1 [Example 52, 4-[[1-[[[(3-Chlorophenyl)sulfonyl]amino]methyl]cyclopentyl]methyl]benzeneacetic acid] | > 5000 | > 1000 | – |
| O=C(O)Cc1ccc(CC2(CNS(=O)(=O)c3ccc(Cl)cc3)CCC2)cc1 [Example 27, 4-[[1-[[[(4-chlorophenyl)sulfonyl]amino]methyl]cyclobutyl]methyl]benzeneacetic acid] | 290 | 20 | – |
| O=C(O)Cc1ccc(CC2(CNS(=O)(=O)c3ccc(Cl)cc3Cl)CCCC2)cc1 [Example 59, 4-[[1-[[[(2,4-Dichlorophenyl)sulfonyl]amino]methyl]cyclopentyl]methyl]benzeneacetic acid] | 1400 | 80 | – |
| O=C(O)Cc1cccc(CC2(CNS(=O)(=O)c3ccc(Cl)cc3)CCCC2)c1 [Example 93, 3-[[1-[[[(4-Chlorophenyl)sulfonyl]amino]methyl]cyclopentyl]methyl]benzeneacetic acid] | 1600 | 50 | – |
| O=C(O)Cc1ccc(CC2(CNS(=O)(=O)c3cccc([N+](=O)[O-])c3)CCCC2)cc1 [Example 58, 4-[[1-[[[(3-Nitrophenyl)sulfonyl]amino]methyl]cyclopentyl]methyl]benzeneacetic acid] | 6300 | 1000 | – |
| CSc1ccc(S(=O)(=O)NCC2(Cc3ccc(CC(=O)O)cc3)CCCC2)cc1 [Example 103, 4-[[1-[[[(4-methylthiophenyl]sulfonyl]amino]methyl]cyclopentyl]methyl]benzeneacetic acid] | 1000 | 180 | – |
| O=S(=O)(NCC1(Cc2ccc(CCO)cc2)CCCC1)c1cccc(Cl)c1 [Example 33, 3-Chloro-N-[[1-[[4-(2-hydroxyethyl)phenyl]methyl]cyclopentyl]methyl]benzenesulfonamide] | > 5000 | > 1000 | – |
| O=C(O)Cc1ccccc1CC1(CNS(=O)(=O)c2ccc(Cl)cc2)CCCC1 [Example 92, 2-[[1-[[[(4-Chlorophenyl)sulfonyl]amino]methyl]cyclopentyl]methyl]benzeneacetic acid] | 370 | 1000 | – |
| CC(=O)Nc1ccc(S(=O)(=O)NCC2(Cc3ccc(CC(=O)O)cc3)CCCC2)cc1 [Example 85, 4-[[1-[[[(4-acetamidophenyl)sulfonyl]amino]methyl]cyclopentyl]methyl]benzeneacetic acid] | 1300 | > 1000 | – |
| O=C(O)Cc1ccc(CC2(CNS(=O)(=O)c3ccc(Cl)cc3)CCOCC2)cc1 [Example 88, 4-[[4-[[[(4-Chlorophenyl)sulfonyl]amino]methyl]tetrahydropyran-4-yl]methyl]benzeneacetic acid] | 310 | 1000 | – |
| O=C(O)Cc1ccc(CC2(CNS(=O)(=O)c3ccc(Cl)cc3)CCCCCC2)cc1 [Example 73, 4-[[1-[[[(4-Chlorophenyl]sulfonyl]amino]methyl]cycloheptyl]methyl]benzeneacetic acid] | 700 | 200 | – |
| O=C(O)Cc1ccc(C[C@@H]2CCC[C@H]2NS(=O)(=O)c2ccccc2)cc1 (relative stereo) [Example 6, Trans-4-[[2-[[(phenyl)sulfonyl]amino]cyclopentyl]methyl]benzeneacetic acid] | 6300 | 560 | – |
